Square brackets hold non-standard residues; d marks the D form. Peptide text beside a SMILES is read from it. Orn = NCCC[C@H](N)C(=O)O
Key:
[1] = test system: IL-1β, TNFα, MCP-1, KC, MMP-3; experiment: ELISA of pro-inflammatory molecules in ankle extracts; assay type: in vivo, mouse; parameters: IL-1β / TNFα / MCP-1 / KC / MMP-3: unit not given here; details: ankle joints
Method: (§1) At each time point and prior to euthanasia, the degree of arthritis as indicated by joint swelling was quantitated by measuring two perpendicular diameters of the ankles using a caliper (Lange Caliper: Cambridge Scientific Industries, Cambridge Mass.). Joint circumference was calculated using the geometric formula of ellipse circumference (2πX √(a^2+b^2)/2). Following euthanasia, serum was isolated from peripheral blood by cardiac stick and ankle joints were removed. One of the ankle joints was fixed in 10% neutral buffered formalin for 24 hours, decalcified in EDTA-decalcification buffer for two weeks, embedded in paraffin, and sectioned. The other ankle joint was placed in liquid nitrogen, grounded into a fine powder by mortal and pestle, digested in protein lysis buffer ([…], 0.5% NP-40, 50 mM Tris, and 2 mM EDTA) in the presence of phosphatase and protease inhibitors, and homogenized on ice for 20 seconds. To examine any toxicity due to systemic delivery of TAT-Bim peptides, alkaline phosphatase (ALP), […] (AST), alanine aminotransferase (ALT), and blood urea nitrogen levels were measured.
For detection of mouse IL-1β, TNFα, MCP-1, KC, or MMP-3 in ankle extracts, sandwich ELISAs were performed according to the manufacturer's instructions (R & D Systems, Minneapolis, Minn.). The sensitivity for all cytokines was 15.6 pg/mL for IL-1β and KC, 7.813 pg/mL for TNFα and MCP-1, and 0.312 ng/mL for MMP3. ELISAs were quantitated by absorbance at 450 nm on a microplate reader (BioRad, Hercules, Calif.). Data obtained using ELISA on ankle extracts were normalized by the total protein concentration (μg/μL) for each individual ankle extract.
Mice were euthanized at seven days post-serum transfer. Ankle joints from each mouse were isolated, snap frozen, grounded into a fine powder, lysed, and examined for IL-1β, TNFα, MCP-1, KC, and MMP-3 production using an ELISA. Data are shown as μg/μL per joint. Values represent the mean±standard error, which were compared by Student's t-test.

IL-1β, TNFα, MCP-1, KC = experiment: Circulating cytokine levels in serum; assay type: in vivo, mice; details: between saline, TAT-inactive BH3 and TAT-BH3 groups
Method: as §1
TAT-BH3 peptides treatment reduces the numbers of myeloid cells in arthritic joints. […] To this end, the numbers of polymorphonuclear cell and macrophages in saline and BH3 peptide arthritic mice were quantified. […]

peripheral blood cells [2] = experiment: Peripheral blood cell counts (flow cytometry, hematology analyzer); assay type: in vivo, mice
Method: Peripheral blood and bone marrow were isolated from mice following euthanasia. Total leukocyte numbers were determined using an automated hematology analyzer ABX Pentra 60 (Diamond Diagnostics, Inc, Holliston, Mass.). The red blood cells in peripheral blood were lysed and the remaining cells were fixed with BD FACS lysing solution (BD Biosciences, Pharmingen) following incubation with antibodies. Bone marrow cells were isolated by flushing Dulbecco's Modified Eagle Medium (DMEM) (Gibco, Grand Island, N.Y.) through the tibias and red blood cells were lysed with BD PharM Lyse (BD Biosciences, Pharmingen) prior to incubation with antibodies. Cells with incubated with Fc Block (BD Biosciences, Pharmingen) then stained with fluorochrome conjugated antibodies to CD45, CD11b, Gr-1, CD62L, Ly-6C, Ly-6G, CD31 (BD Biosciences, Pharmingen) or isotype control antibodies for 30 minutes. Cells were acquired on a BD LSRII (BD Biosciences, Pharmingen) using Diva Software at the Saint Louis University Core Flow Cytometry Facility. All analysis was performed using FlowJo software (Tree Star Inc.).
Peripheral blood was isolated by cardiac sticks. Cells were blocked for 10 minutes with Fc block and then stained with anti-CD45, anti-CD19, anti-CD3, anti-CD4, anti-CDS, anti-CD11b, anti-Gr-1, and anti-CD62L antibodies for 30 minutes. Platelets and RBCs were determined on an automated hematology analyzer ABX Pentra 60. Following incubation with antibodies red blood cells were lysed and cells were fixed with Becton Dickenson FACS lysing solution.

peripheral blood cells [3] = experiment: as above; assay type: in vivo, mice; details: as compared to TAT-inactive BH3 and saline
[4] = seven days post-serum transfer, mean ± standard error
[5] = as compared to TAT-inactive BH3 and saline
[6] = peripheral blood, hematology analyzer, mean ± standard error
[7] = peripheral blood, mean ± standard error

CC[C@H](C)[C@H](NC(=O)[C@H](CCCNC(=N)N)NC(=O)[C@H](CCCNC(=N)N)NC(=O)[C@H](CC(C)C)NC(=O)[C@H](CCC(=O)O)NC(=O)[C@H](CCC(N)=O)NC(=O)[C@H](C)NC(=O)[C@@H](NC(=O)[C@H](Cc1c[nH]c2ccccc12)NC(=O)[C@@H](NC(=O)[C@H](CCC(=O)O)NC(=O)[C@H](CCCNC(=N)N)NC(=O)[C@H](CCCNC(=N)N)NC(=O)[C@H](CCCNC(=N)N)NC(=O)[C@H](CCCN)NC(=O)[C@H](CCCNC(=N)N)NC(=O)[C@H](CCCNC(=N)N)NC(=O)[C@H](CCCCN)NC(=O)[C@H](CCCCN)NC(=O)[C@H](CCCNC(=N)N)NC(C)=O)[C@@H](C)CC)[C@@H](C)CC)C(=O)NCC(=O)N[C@@H](CC(=O)O)C(=O)N[C@@H](CCC(=O)O)C(=O)N[C@@H](Cc1ccccc1)C(=O)N[C@@H](CC(N)=O)C(=O)N[C@@H](C)C(=O)N[C@@H](Cc1ccc(O)cc1)C(=O)N[C@@H](Cc1ccc(O)cc1)C(=O)N[C@@H](C)C(=O)N[C@@H](CCCNC(=N)N)C(=O)O [TAT-BH3] (Ac-RKKRR[Orn]RRREIWIAQELRRIGDEFNAYYAR-OH)
IL-1β [1, 4]: 522 ± 127 | KC [1, 4]: 308 ± 78 | MCP-1 [1, 4]: 131 ± 28 | MMP-3 [1, 4]: 9 ± 3 | TNFα [1, 4]: 4.5 ± 0.3 | change in level of TNFα ([1]; vs saline or TAT-inactive BH3): no change | decrease in level of IL-1β ([1]; vs saline or TAT-inactive BH3): 37% | levels of MMP-3 reduced ([1]; vs saline or TAT-inactive BH3): 47% | production of KC diminished ([1]; vs saline or TAT-inactive BH3): 28% | production of MCP-1 diminished ([1]; vs saline or TAT-inactive BH3): 47% | circulating levels of IL-1β, TNFα, MCP-1, and KC in serum (IL-1β, TNFα, MCP-1, KC): no differences | decrease in platelets (peripheral blood cells [2]; as compared to TAT-inactive BH3): 29% | number of circulating leukocytes (peripheral blood cells [2]; [5]): did not reduce | number of red blood cells (peripheral blood cells [2]; [5]): did not reduce | decrease in numbers of neutrophils in peripheral blood (peripheral blood cells [2]; as compared to TAT-inactive peptide and saline): 40% | decrease in platelets (peripheral blood cells [2]; as compared to saline): 23% | effect on platelet counts (peripheral blood cells [2]; general statement): minimal effect | Platelets (peripheral blood cells [2]; [6]): 930.3 ± 55.32 (1E6) | RBCs (peripheral blood cells [2]; [6]): 9.60 ± 0.42 (1E6) | B-cells+ (peripheral blood cells [2]; [7]): 2.51 ± 0.11 (1E6) | CD4+ T-cells (peripheral blood cells [2]; [7]): 1.25 ± 0.06 (1E6) | CD8+ T-cells (peripheral blood cells [2]; [7]): 0.86 ± 0.04 (1E6) | Inflammatory monocytes (peripheral blood cells [2]; [7]): 0.26 ± 0.03 (1E6) | N-K-cells (peripheral blood cells [2]; [7]): 0.23 ± 0.02 (1E6) | Resident Monocytes (peripheral blood cells [2]; [7]): 0.21 ± 0.02″ (1E6) | T-cells (peripheral blood cells [2]; [7]): 2.20 ± 0.10 (1E6) | Total Leukocytes (peripheral blood cells [2]; [7]): 6.2 ± 0.22 (1E6) | number of splenocytes (peripheral blood cells [3]): did not reduce
